Consider two substances from patent US20110053833A1, “SYNTHETIC PEPTIDES AND THEIR USE” (priority 2007, published 2011).

Common to all, as to assay type: cell-based
One assay deals with E. coli. The assay is described as follows: Microbicidal activity, peptides incubated with E. coli for 2 h in BP. To be noted: 2 h incubation in BP; two fold dilution steps starting at 100 μg/ml. As for the experimental part:
(§1) The peptides were incubated with E. coli, S. aureus or C. albicans for 2 h in BP. The peptides were diluted in two fold steps starting at 100 μg/ml or 200 μg/ml (C. albicans).

The subject of a further assay is S. aureus. The assay is described as follows: Microbicidal activity, peptides incubated with S. aureus for 2 h in BP. To be noted: 2 h incubation in BP; two fold dilution steps starting at 100 μg/ml. As for the experimental part: as §1
Another assay concerns C. albicans. As to the kind of experiment: Microbicidal activity, peptides incubated with C. albicans for 2 h in BP. As to conditions: 2 h incubation in BP; two fold dilution steps starting at 200 μg/ml. As for the experimental part:
as §1

The subject of assay [1] is E. coli, S. aureus or C. albicans. The assay is described as follows: Microbicidal activity, overall comparison with native hLF-derived peptide. As to conditions: versus HLBD1. The procedure:
as §1

For the substance “EATKCFQWKRNMRKVRGPPVSCIKR (EATKCFQWKRNMRKVRGPPVSCIKR; a fragment of human lactoferrin corresponding to aa 16-40 wherein one aa has been substituted) [HLBD1Q24K, synthetic peptide according to the present invention]”, in the assay on E. coli, the “MMC99% E. coli” value was 12 µg/mL. Also, the “MMC99% S. aureus” value with S. aureus was 25 µg/mL. The “MMC99% C. albicans” value in the assay with C. albicans is 50 µg/mL. For the same substance, the “microbicidal activity compared with the corresponding peptide derived from the sequence of native hLF” value in assay [1] is recorded as “considerably higher”.
For “EATKCFQWQRNMRKVRGPPVSCIKR (EATKCFQWQRNMRKVRGPPVSCIKR; a fragment of human lactoferrin corresponding to aa 16-40 wherein two aa has been substituted) [HLBD1, reference compound]”, in the assay with E. coli, the “MMC99% E. coli” value is 50 µg/mL. Also, in the assay on S. aureus, the “MMC99% S. aureus” value came to 50 µg/mL. Besides, the “MMC99% C. albicans” value in the assay on C. albicans was 200 µg/mL.
